Earlier results, collected in patent publication US20100272789A1, “EXTERNAL MEDICINE FOR TREATMENT OR PREVENTION” (priority 2007, published 2010).

Settings: 20 degrees Celsius at 1 atm

[HH] [hydrogen molecules, hydrogen]
solubility of hydrogen molecules into water: 1.6 µg/mL
